In paper PMC7450057, “Enhancing intracellular accumulation and target engagement of PROTACs with reversible covalent chemistry” (Nature Communications, 2020):
Several values for one entry are separate records, joined by “and”; a condition that tells them apart may be missing. Equal values may be shown once.

Experiments:
BTK [1] = molecular target: T1, BTK (Homo sapiens, UniProt Q06187); experiment: In vitro BTK kinase assay (PhosphoSens); assay type: biochemical; design: purchased SignalChem B10-10H-10; settings: for IC50: AssayQuant BTK assay kit, 2.5 nM BTK, 1 mM ATP, duplicates, read-out: BTK inhibition IC50; for activity at 2.56 pM / activity at 12.8 pM / activity at 64 pM / activity at 0.00032 µM / activity at 0.0016 µM / activity at 0.008 µM / activity at 0.04 µM / activity at 0.2 µM / activity at 1 µM: Supplementary Figure 5, replicates, read-out: Inhibition(%); for activity at 2.56 pM: drug concentration 2.56 pM; for activity at 12.8 pM: drug concentration 12.8 pM; for activity at 64 pM: drug concentration 64 pM; for activity at 0.00032 µM: drug concentration 320 pM; for activity at 0.0016 µM: drug concentration 1600 pM; for activity at 0.008 µM: drug concentration 8000 pM; for activity at 0.04 µM: drug concentration 40000 pM; for activity at 0.2 µM: drug concentration 200000 pM; for activity at 1 µM: drug concentration 1000000 pM
T1 sequence (Q06187 whole entry): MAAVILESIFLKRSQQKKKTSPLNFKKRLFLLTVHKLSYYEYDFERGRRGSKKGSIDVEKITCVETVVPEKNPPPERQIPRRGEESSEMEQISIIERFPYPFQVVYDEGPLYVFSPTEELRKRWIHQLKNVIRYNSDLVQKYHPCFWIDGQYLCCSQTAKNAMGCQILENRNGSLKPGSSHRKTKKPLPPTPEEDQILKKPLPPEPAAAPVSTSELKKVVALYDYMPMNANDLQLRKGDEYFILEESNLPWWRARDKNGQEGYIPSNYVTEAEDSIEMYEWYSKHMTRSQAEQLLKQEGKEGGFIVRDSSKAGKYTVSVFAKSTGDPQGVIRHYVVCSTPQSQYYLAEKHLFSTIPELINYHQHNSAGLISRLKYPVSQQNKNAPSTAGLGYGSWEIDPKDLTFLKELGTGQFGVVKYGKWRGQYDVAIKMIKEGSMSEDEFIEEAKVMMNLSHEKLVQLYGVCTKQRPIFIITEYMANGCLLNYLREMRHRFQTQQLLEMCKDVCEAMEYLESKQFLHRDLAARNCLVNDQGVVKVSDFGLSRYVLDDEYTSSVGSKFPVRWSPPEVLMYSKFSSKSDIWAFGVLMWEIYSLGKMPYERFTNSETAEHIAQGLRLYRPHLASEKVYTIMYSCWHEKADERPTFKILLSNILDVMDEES
Method: BTK kinase activity inhibition IC50 was measured by PhosphoSens® Kinase Assay Kit (Assay Quant Technologies Inc., Cat.# CSKS-AQT0101K). […] Active recombinant BTK was purchased from SignalChem (Cat.# B10-10H-10). All the drugs (3 warhead control and 4 PROTACs) were dissolved in DMSO (10 mM). […] To calculate the IC50, subtract the background fluorescence determined with the “no kinase” control for each time point from the total signal to obtain corrected Relative Fluorescence Units (RFU) values. Plot the corrected RFU vs. Time for each inhibitor concentration and determine the initial reaction rates (slope of the linear portion) for each progress curve for each inhibitor concentration. Then plot velocity (RFU corrected/minute) vs [inhibitor] and determine the IC50 using a 4-parameter logistic fit.

full-length BTK protein = molecular target: T2, full-length BTK protein (Homo sapiens, UniProt Q06187); experiment: BTK binding assay (Kd, Eurofins DiscoverX); settings: for Kd: full-length BTK, duplicates
T2 construct: Kd was measured using the full-length BTK protein by Eurofins DiscoverX; T7 phage fusion or DNA tag for qPCR (generic vendor protocol); purchased Eurofins DiscoverX
T2 sequence (Q06187 whole entry, the tested form may be a part): as the sequence (Q06187 whole entry) above
Method: The dissociation equilibrium constant Kd was measured using the full-length BTK protein by Eurofins DiscoverX according to the following protocol: kinase-tagged T7 phage strains were prepared in an E. coli host derived from the BL21 strain. E. coli were grown to log-phase and infected with T7 phage and incubated with shaking at 32 °C until lysis. The lysates were centrifuged and filtered to remove cell debris. The remaining kinases were produced in HEK-293 cells and subsequently tagged with DNA for qPCR detection. […] The liganded beads were blocked with excess biotin and washed with blocking buffer (SeaBlock (Pierce), 1% BSA, 0.05% Tween 20, 1 mM DTT) to remove unbound ligand and to reduce non-specific binding. […] Test compounds were prepared as 111X stocks in 100% DMSO. […] The compounds were then diluted directly into the assays such that the final concentration of DMSO was 0.9%. All reactions performed in polypropylene 384-well plate. Each was a final volume of 0.02 mL. […] The kinase concentration in the eluates was measured by qPCR. For kinase-binding constant determination, an 11-point 3-fold serial dilution of each test compound was prepared in 100% DMSO at 100x final test concentration and subsequently diluted to 1x in the assay (final DMSO concentration = 1%). […] Binding constants (Kd values) were calculated with a standard dose-response curve using the Hill equation: Response=Background+Signal−Background/1+KdHillSlope/Dose^HillSlope
The Hill Slope was set to −1. Curves were fitted using a non-linear least square fit with the Levenberg-Marquardt algorithm.

[2] = Permeability by lipid-PAMPA method (Pharmaron); assay type: in vitro ADME; settings: PAMPA
Method: The permeability of compounds was measured using Lipid-PAMPA method by Pharmaron. Preparation of stock solutions: testosterone and methotrexate were used as control compounds in this assay. The stock solutions of positive controls were prepared in DMSO or acetonitrile at the concentration of 10 mM. Prepare a stock solution of compounds in DMSO at the concentration of 10 mM, and further dilute with PBS (pH 7.4). […]
Assay procedures: prepare a 1.8% solution (w/v) of lecithin in dodecane, and sonicate the mixture to ensure a complete dissolution. Carefully pipette 5 μL of the lecithin/dodecane mixture into each acceptor plate well (top compartment), avoiding pipette tip contact with the membrane. Immediately after the application of the artificial membrane (within 10 min), add 300 μL of PBS (pH 7.4) solution to each well of the acceptor plate. Add 300 μL of drug-containing solutions to each well of the donor plate (bottom compartment) in triplicate. Slowly and carefully place the acceptor plate into the donor plate, making sure the underside of the membrane is in contact with the drug-containing solutions in all wells. Replace the plate lid and incubate at 25 °C, 60 rpm for 16 h. After incubation, aliquots of 50 μL from each well of acceptor and donor plate are transferred into a 96-well plate. Add 450 μL of methanol (containing IS: 100 nM Alprazolam, 200 nM Caffeine, 100 nM Tolbutamide) into each well. Cover with plate lid. Vortex at 750 rpm for 100 s. Samples were centrifuged at 3220 × g for 20 min. Determine the compound concentrations by LC/MS/MS. The effective permeability (Pe), in units of centimeter per second, can be calculated using the following equation: LogPe=LogC×−Ln1−drugacceptor/drugequilibrium

BTK [3] = molecular target: T1, BTK; experiment: BTK degradation in MOLM-14 cells (western blot); assay type: cell-based; design: endogenous in cells; host or cells: MOLM-14; settings: for BTK degradation (in words): MOLM-14 cells, 24 h (Fig. 2d)
Maver-1 = experiment: IC50 in MCL cell lines (Supplementary Table 2), Maver-1; settings: for Cell Viability (%): Maver-1 cells, replicate wells
[4] = BTK_-DTT, compound concentration 0.137 nM

Compound `CN(CCCNC(=O)CNc1cccc2c1C(=O)N(C1CCC(=O)NC1=O)C2=O)CCCC(=O)N1CCCC(n2nc(-c3ccc(Oc4ccccc4)cc3)c3c(N)ncnc32)C1` (stereo not shown) [RNC-1] has an IC50 (BTK [1]) of 21.2 nM, an activity at 2.56 pM (BTK [1]) of 87.5% and an activity at 12.8 pM (BTK [1]) of 93%. It also gave an activity at 64 pM (BTK [1]) of 88%, an activity at 0.00032 µM (BTK [1]) of 96.2% and an activity at 0.0016 µM (BTK [1]) of 83.6%. The activity at 0.008 µM (BTK [1]) was 71.7%, the activity at 0.04 µM (BTK [1]) was 32.2% and the activity at 0.2 µM (BTK [1]) was 14%. For the same compound, the activity at 1 µM (BTK [1]) was 4.94%, the “diminished BTK inhibitory activity compared with corresponding warhead control” value (BTK [1]; ratio of IC50 values) was less than 3 fold and the Signal (full-length BTK protein; BTK_+DTT, compound concentration 0.0457 nM) was 1.67E-05 and 2.04E-05. For the same compound, the Signal (full-length BTK protein; BTK_+DTT, compound concentration 0.137 nM) was 2.07E-05, the Signal (full-length BTK protein; BTK_+DTT, compound concentration 0.412 nM) was 1.78E-05 and 1.97E-05 and the Signal (full-length BTK protein; BTK_+DTT, compound concentration 1.23 nM) was 1.66E-05 and 1.94E-05. For the same compound, the Signal (full-length BTK protein; BTK_+DTT, compound concentration 3.7 nM) was 9.43E-06 and 1.17E-05, the Signal (full-length BTK protein; BTK_+DTT, compound concentration 11.1 nM) was 5.40E-06 and 5.82E-06 and the Signal (full-length BTK protein; BTK_+DTT, compound concentration 33.3 nM) was 1.59E-06 and 1.81E-06. The Signal (full-length BTK protein; BTK_+DTT, compound concentration 100 nM) was 4.37E-07 and 5.02E-07, the Signal (full-length BTK protein; BTK_+DTT, compound concentration 300 nM) was 2.01E-07 and 2.30E-07 and the Signal (full-length BTK protein; BTK_+DTT, compound concentration 900 nM) was 1.47E-07 and 2.72E-07. The Signal (full-length BTK protein; BTK_+DTT, compound concentration 2700 nM) was 1.45E-07 and 2.02E-07, the Signal (full-length BTK protein; [4]) was 2.06E-05 and the Kd (full-length BTK protein; standard assay buffer in the presence of DTT (6 mM) (DiMe compounds: BTK_+DTT per Supplementary Data 1)) was 4.7 nM. The recovery at 16 h, 10 μM ([2]; Recovery%) was 30%, the Papp at 16 h, 10 μM ([2]; pH 7.4) was less than 0.00209 ×10⁻⁶ cm/s and the “Quantification anti-BTK / anti-β-actin (BTK level vs DMSO)” value (BTK [3]; Figure 2b, 8 nM, duplicates) was 97.1575 and 95.3789. The “Quantification anti-BTK / anti-β-actin (BTK level vs DMSO)” value (BTK [3]; Figure 2b, 40 nM, duplicates) was 69.0679 and 73.2452 and the “Quantification anti-BTK / anti-β-actin (BTK level vs DMSO)” value (BTK [3]; Figure 2b, 200 nM, duplicates) was 33.5661 and 27.9942.

With `CC(C)(C)C=C(C#N)C(=O)N1CCCC(n2nc(-c3ccc(Oc4ccccc4)cc3)c3c(N)ncnc32)C1` (stereo not shown) [RC-Ctrl] the IC50 (BTK [1]) was 2.2 nM, the activity at 2.56 pM (BTK [1]) was 108% and the activity at 12.8 pM (BTK [1]) was 105%. For the same compound, the activity at 64 pM (BTK [1]) was 109%, the activity at 0.00032 µM (BTK [1]) was 96.8% and the activity at 0.0016 µM (BTK [1]) was 64.1%. The activity at 0.008 µM (BTK [1]) was 25.5%, the activity at 0.04 µM (BTK [1]) was 4.68% and the activity at 0.2 µM (BTK [1]) was 1.89%. The activity at 1 µM (BTK [1]) was 2.91%, the “reduction of BTK inhibition activity compared with IRC-Ctrl” value (BTK [1]; ratio of IC50 values) was 7 folds and the Signal (full-length BTK protein; BTK_+DTT, compound concentration 0.00491 nM) was 2.09E-05 and 2.12E-05. For the same compound, the Signal (full-length BTK protein; BTK_+DTT, compound concentration 0.0147 nM) was 2.23E-05 and 2.05E-05, the Signal (full-length BTK protein; BTK_+DTT, compound concentration 0.0442 nM) was 2.23E-05 and 2.20E-05 and the Signal (full-length BTK protein; BTK_+DTT, compound concentration 0.133 nM) was 2.05E-05. The Signal (full-length BTK protein; BTK_+DTT, compound concentration 0.398 nM) was 2.13E-05 and 2.22E-05, the Signal (full-length BTK protein; BTK_+DTT, compound concentration 1.19 nM) was 1.80E-05 and 1.97E-05 and the Signal (full-length BTK protein; BTK_+DTT, compound concentration 3.58 nM) was 1.78E-05 and 1.71E-05. The Signal (full-length BTK protein; BTK_+DTT, compound concentration 10.7 nM) was 1.50E-05 and 1.39E-05, the Signal (full-length BTK protein; BTK_+DTT, compound concentration 32.2 nM) was 7.62E-06 and 7.96E-06 and the Signal (full-length BTK protein; BTK_+DTT, compound concentration 96.7 nM) was 2.20E-06 and 2.08E-06. The Signal (full-length BTK protein; BTK_+DTT, compound concentration 290 nM) was 4.82E-07 and 5.26E-07, the Signal (full-length BTK protein; BTK_-DTT, compound concentration 0.0152 nM) was 1.69E-05 and 1.12E-05 and the Signal (full-length BTK protein; BTK_-DTT, compound concentration 0.0457 nM) was 1.66E-05 and 1.75E-05. For the same compound, the Signal (full-length BTK protein; [4]) was 1.87E-05 and 1.52E-05, the Signal (full-length BTK protein; BTK_-DTT, compound concentration 0.412 nM) was 1.34E-05 and 1.41E-05 and the Signal (full-length BTK protein; BTK_-DTT, compound concentration 1.23 nM) was 1.48E-05 and 1.35E-05. For the same compound, the Signal (full-length BTK protein; BTK_-DTT, compound concentration 3.7 nM) was 1.31E-05 and 1.42E-05, the Signal (full-length BTK protein; BTK_-DTT, compound concentration 11.1 nM) was 6.46E-06 and 6.66E-06 and the Signal (full-length BTK protein; BTK_-DTT, compound concentration 33.3 nM) was 2.78E-06 and 2.85E-06. The Signal (full-length BTK protein; BTK_-DTT, compound concentration 100 nM) was 8.37E-07 and 7.44E-07, the Signal (full-length BTK protein; BTK_-DTT, compound concentration 300 nM) was 2.56E-07 and 2.49E-07 and the Kd (full-length BTK protein; absence of DTT in the buffer) was 9.1 nM. The “Quantification anti-BTK / anti-β-actin (BTK level vs DMSO)” value (BTK [3]; Figure 2d, DMSO = 100 (mean)) was 83.2734, the “BTK degradation (in words)” value (BTK [3]; 200 nM) was “Neither RC-Ctrl, nor pomalidomide, nor a combination of both caused BTK degradation” and the “BTK degradation (in words)” value (BTK [3]; 200 nM, listed as RC-1 warhead) was “neither the RC-1 warhead, nor pomalidomide, nor a combination of both caused BTK degradation”. The IC50 (Maver-1; Maver-1, triplicates) was greater than 5000 nM, the “Cell Viability (%)” value (Maver-1; 1.25E-06 M) was 92.5899% and 86.5612% and 87.595% and the “Cell Viability (%)” value (Maver-1; 1.56E-07 M) was 103.384% and 106.186% and 101.772%. The “Cell Viability (%)” value (Maver-1; 2.50E-06 M) was 81.7599% and 80.9854% and 82.1702%, the “Cell Viability (%)” value (Maver-1; 3.13E-07 M) was 99.5605% and 94.4048% and 98.8352% and the “Cell Viability (%)” value (Maver-1; 5.00E-06 M) was 60.4937% and 62.4464% and 56.8706%. The “Cell Viability (%)” value (Maver-1; 6.25E-07 M) was 97.5323% and 94.4409% and 89.8332% and the “Cell Viability (%)” value (Maver-1; 7.81E-08 M) was 103.555% and 102.055% and 101.769%.
